Data on one compound can be found in patent US20040234978A1, “Novel potential-dependent cation channel protein” (priority 2001, published 2004).

The experiment has as its system CAE9577. Put plainly: Na current measurement in CAE9577 expressed oocytes. Format: cell-based, human.

As to `NC1=N[C@H](O)[C@H]2[C@H]3O[C@]4(O)O[C@@H]([C@@H](O)[C@@]2(N1)[C@@H]4O)[C@]3(O)CO` [TTX, Tetrodotoxin], the “inhibition of the inward Na current” value is on record as “partially inhibited”.
